Measurements: PubChem BioAssay (NCI)
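Values below derive from 48-hour exposures of cells grown in 96-well plates, with endpoints linearly interpolated between the two concentrations bracketing the appropriate inhibition level. GI50: concentration for 50% inhibition of growth. TGI marks complete inhibition of growth.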

Experiments:
Assay in all cases: growth of human tumour cells (NCI), 48 h
[1] = tested on: SNB-75 CNS
[2] = tested on: SW-620 colon
[3] = tested on: ACHN renal
[4] = tested on: MDA-MB-435
[5] = tested on: NCI-H23 lung
[6] = tested on: HCT-15 colon
[7] = tested on: SF-268 CNS
[8] = tested on: LOX IMVI melanoma
[9] = tested on: A549 NSCLC
[10] = tested on: EKVX NSCLC
[11] = tested on: HT29 colon
[12] = tested on: IGROV1 ovarian
[13] = tested on: HCT-116 colon
[14] = tested on: OVCAR-8 ovarian
[15] = tested on: PC-3 prostate
[16] = tested on: HOP-62 NSCLC
[17] = tested on: TK-10 renal
[18] = tested on: CAKI-1 renal
[19] = tested on: HCC-2998 colon
[20] = tested on: DU-145 prostate
[21] = tested on: UACC-257 melanoma
[22] = tested on: NCI/ADR-RES ovarian
[23] = tested on: OVCAR-3 ovarian
[24] = tested on: COLO 205 colon
[25] = tested on: SR leukemia
[26] = tested on: NCI-H460 lung
[27] = tested on: SK-MEL-5 melanoma
[28] = tested on: RPMI-8226 leukemia
[29] = tested on: MDA-MB-231 breast
[30] = tested on: NCI-H522 lung
[31] = tested on: CCRF-CEM leukemia
[32] = tested on: T-47D breast
[33] = tested on: UO-31 renal
[34] = tested on: MDA-N
[35] = tested on: HS 578T breast
[36] = tested on: SF-295 CNS
[37] = tested on: SF-539 CNS
[38] = tested on: BT-549 breast
[39] = tested on: M14 melanoma
[40] = tested on: SK-MEL-28 melanoma
[41] = tested on: U251 CNS
[42] = tested on: OVCAR-4 ovarian
[43] = tested on: HL-60(TB) leukemia
[44] = tested on: SK-MEL-2 melanoma
[45] = tested on: KM12 colon
[46] = tested on: MOLT-4 leukemia
[47] = tested on: OVCAR-5 ovarian
[48] = tested on: 786-0 renal
[49] = tested on: SN12C renal
[50] = tested on: A498 renal
[51] = tested on: HOP-92 NSCLC
[52] = tested on: UACC-62 melanoma
[53] = tested on: MCF7 breast
[54] = tested on: SNB-19 CNS
[55] = tested on: RXF 393 renal
[56] = tested on: K-562 leukemia
[57] = tested on: MALME-3M melanoma
[58] = tested on: SK-OV-3 ovarian
[59] = tested on: NCI-H226 lung

CC(=O)NC1CCCN(O)C(=O)/C=C(/C)CCOC(=O)C(NC(C)=O)CCCN(O)C(=O)/C=C(/C)CCOC(=O)C(NC(C)=O)CCCN(O)C(=O)/C=C(/C)CCOC1=O.[Fe] (stereo unspecified)
GI50 [1]: > 100 µM
TGI [1]: > 100 µM
GI50 [2]: > 100 µM
TGI [2]: > 100 µM
GI50 [3]: > 100 µM
TGI [3]: > 100 µM
GI50 [4]: > 100 µM
TGI [4]: > 100 µM
GI50 [5]: > 100 µM
TGI [5]: > 100 µM
GI50 [6]: > 100 µM
TGI [6]: > 100 µM
GI50 [7]: > 100 µM
TGI [7]: > 100 µM
GI50 [8]: > 100 µM
TGI [8]: > 100 µM
GI50 [9]: > 100 µM
TGI [9]: > 100 µM
GI50 [10]: > 100 µM
TGI [10]: > 100 µM
GI50 [11]: > 100 µM
TGI [11]: > 100 µM
GI50 [12]: > 100 µM
TGI [12]: > 100 µM
GI50 [13]: > 100 µM
TGI [13]: > 100 µM
GI50 [14]: > 100 µM
TGI [14]: > 100 µM
GI50 [15]: > 100 µM
TGI [15]: > 100 µM
GI50 [16]: > 100 µM
TGI [16]: > 100 µM
GI50 [17]: > 100 µM
TGI [17]: > 100 µM
GI50 [18]: > 100 µM
TGI [18]: > 100 µM
GI50 [19]: > 100 µM
TGI [19]: > 100 µM
GI50 [20]: > 100 µM
TGI [20]: > 100 µM
GI50 [21]: > 100 µM
TGI [21]: > 100 µM
GI50 [22]: > 100 µM
TGI [22]: > 100 µM
GI50 [23]: > 100 µM
TGI [23]: > 100 µM
GI50 [24]: > 100 µM
TGI [24]: > 100 µM
GI50 [25]: > 100 µM
TGI [25]: > 100 µM
GI50 [26]: > 100 µM
TGI [26]: > 100 µM
GI50 [27]: > 100 µM
TGI [27]: > 100 µM
GI50 [28]: > 100 µM
TGI [28]: > 100 µM
GI50 [29]: > 100 µM
TGI [29]: > 100 µM
GI50 [30]: > 100 µM
TGI [30]: > 100 µM
GI50 [31]: > 100 µM
TGI [31]: > 100 µM
GI50 [32]: > 100 µM
TGI [32]: > 100 µM
GI50 [33]: > 100 µM
TGI [33]: > 100 µM
GI50 [34]: > 100 µM
TGI [34]: > 100 µM
GI50 [35]: > 100 µM
TGI [35]: > 100 µM
GI50 [36]: > 100 µM
TGI [36]: > 100 µM
GI50 [37]: > 100 µM
TGI [37]: > 100 µM
GI50 [38]: > 100 µM
TGI [38]: > 100 µM
GI50 [39]: > 100 µM
TGI [39]: > 100 µM
GI50 [40]: > 100 µM
TGI [40]: > 100 µM
GI50 [41]: > 100 µM
TGI [41]: > 100 µM
GI50 [42]: > 100 µM
TGI [42]: > 100 µM
GI50 [43]: > 100 µM
TGI [43]: > 100 µM
GI50 [44]: > 100 µM
TGI [44]: > 100 µM
GI50 [45]: > 100 µM
TGI [45]: > 100 µM
GI50 [46]: > 100 µM
TGI [46]: > 100 µM
GI50 [47]: > 100 µM
TGI [47]: > 100 µM
GI50 [48]: > 100 µM
TGI [48]: > 100 µM
GI50 [49]: > 100 µM
TGI [49]: > 100 µM
GI50 [50]: > 100 µM
TGI [50]: > 100 µM
GI50 [51]: > 100 µM
TGI [51]: > 100 µM
GI50 [52]: > 100 µM
TGI [52]: > 100 µM
GI50 [53]: > 100 µM
TGI [53]: > 100 µM
GI50 [54]: > 100 µM
TGI [54]: > 100 µM

C=CCN1C(=O)/C(=C/c2ccccc2)N=C1SC1OC(COC(C)=O)C(OC(C)=O)C(OC(C)=O)C1OC(C)=O (stereo unspecified)
TGI [1]: 67.8 µM
TGI [2]: > 100 µM
TGI [55]: 36.6 µM
TGI [3]: 64.6 µM
TGI [4]: > 100 µM
TGI [5]: 87.6 µM
TGI [6]: > 100 µM
TGI [7]: 53.4 µM
TGI [8]: > 100 µM
TGI [9]: > 100 µM
TGI [10]: 63.7 µM
TGI [11]: > 100 µM
TGI [12]: 91.1 µM
TGI [13]: 83 µM
TGI [14]: 95.5 µM
TGI [15]: 52.9 µM
TGI [16]: > 100 µM
TGI [17]: > 100 µM
TGI [18]: 53.8 µM
TGI [19]: > 100 µM
TGI [20]: 71.6 µM
TGI [21]: > 100 µM
TGI [22]: 69.4 µM
TGI [23]: 45.8 µM
TGI [25]: > 100 µM
TGI [26]: > 100 µM
TGI [28]: > 100 µM
TGI [29]: 47.7 µM
TGI [30]: 55.4 µM
TGI [31]: > 100 µM
TGI [32]: > 100 µM
TGI [34]: > 100 µM
TGI [35]: 72.2 µM
TGI [36]: > 100 µM
TGI [38]: 65.5 µM
TGI [39]: > 100 µM
TGI [56]: > 100 µM
TGI [40]: 76.6 µM
TGI [41]: 58.9 µM
TGI [42]: > 100 µM
TGI [57]: 62.4 µM
TGI [43]: 60.6 µM
TGI [44]: 48.8 µM
TGI [45]: > 100 µM
TGI [46]: > 100 µM
TGI [47]: > 100 µM
TGI [48]: > 100 µM
TGI [49]: 71.3 µM
TGI [50]: 99.7 µM
TGI [58]: > 100 µM
TGI [51]: 76.6 µM
TGI [52]: 52.4 µM
TGI [53]: > 100 µM
TGI [54]: > 100 µM

Clc1cc2nnn(C3CCCCO3)c2cc1Cl (stereo unspecified)
TGI [1]: > 100 µM
TGI [55]: > 100 µM
TGI [3]: > 100 µM
TGI [4]: > 100 µM
TGI [5]: > 100 µM
TGI [6]: > 100 µM
TGI [7]: > 100 µM
TGI [9]: > 100 µM
TGI [10]: 79.4 µM
TGI [11]: > 100 µM
TGI [12]: > 100 µM
TGI [13]: > 100 µM
TGI [14]: > 100 µM
TGI [15]: > 100 µM
TGI [16]: > 100 µM
TGI [17]: > 100 µM
TGI [18]: > 100 µM
TGI [19]: > 100 µM
TGI [20]: > 100 µM
TGI [21]: > 100 µM
TGI [22]: > 100 µM
TGI [23]: > 100 µM
TGI [24]: > 100 µM
TGI [25]: > 100 µM
TGI [26]: > 100 µM
TGI [27]: > 100 µM
TGI [28]: > 100 µM
TGI [29]: > 100 µM
TGI [30]: > 100 µM
TGI [31]: > 100 µM
TGI [32]: > 100 µM
TGI [33]: > 100 µM
TGI [34]: > 100 µM
TGI [35]: > 100 µM
TGI [36]: > 100 µM
TGI [37]: > 100 µM
TGI [38]: > 100 µM
TGI [39]: > 100 µM
TGI [56]: > 100 µM
TGI [41]: > 100 µM
TGI [42]: > 100 µM
TGI [57]: > 100 µM
TGI [44]: > 100 µM
TGI [45]: > 100 µM
TGI [46]: > 100 µM
TGI [47]: > 100 µM
TGI [59]: > 100 µM
TGI [48]: > 100 µM
TGI [49]: > 100 µM
TGI [50]: > 100 µM
TGI [58]: > 100 µM
TGI [52]: > 100 µM
TGI [53]: > 100 µM
TGI [54]: > 100 µM
